According to US20160067674A1, “LIGANDS AND METHODS FOR ISOLATING OR REMOVING PROTEINS” (PreviPharma AG, priority 2014, published 2016):
Starred links: 1 amine or outer side, 2 acyl side, 3 side chain; linkers in the order of their positions; H or OH if unused. No end group written: not given here. *: point of attachment. code X = linker with the sequence GSGSGSG, O=C(CNC(=O)[C@H](CO)NC(=O)CN[*:1])N[C@@H](CO)C(=O)NCC(=O)N[C@@H](CO)C(=O)NCC(=O)[*:2]; Biotin = O=C1N[C@H]2[C@H](CS[C@H]2CCCCC(=O)*)N1

Tests used:
factor V or factor VIII = test: Peptide array of Protein C sequence, binding affinity towards factor V or factor VIII; conditions: compared with sequences i) to iii)
From the text: (§1) In this manner, the sequences of Protein A, Protein G, Protein H and FcRn were investigated for peptides binding to IgG. In addition, the sequence of Protein C was investigated for peptides binding to factor V and factor VIII.

factor V = factor V (Homo sapiens, UniProt P12259); test: Peptide array of Protein C sequence for peptides binding to factor V
From the text: as §1

factor VIII = factor VIII (Homo sapiens, UniProt P00451); test: Peptide array of Protein C sequence for peptides binding to factor VIII
From the text: as §1

IgG = IgG binding to and release from peptide-modified streptavidin latex particles, bound and eluted IgG analysed by ELISA

factor VIII, sequence (P00451 20-2351, species assumed): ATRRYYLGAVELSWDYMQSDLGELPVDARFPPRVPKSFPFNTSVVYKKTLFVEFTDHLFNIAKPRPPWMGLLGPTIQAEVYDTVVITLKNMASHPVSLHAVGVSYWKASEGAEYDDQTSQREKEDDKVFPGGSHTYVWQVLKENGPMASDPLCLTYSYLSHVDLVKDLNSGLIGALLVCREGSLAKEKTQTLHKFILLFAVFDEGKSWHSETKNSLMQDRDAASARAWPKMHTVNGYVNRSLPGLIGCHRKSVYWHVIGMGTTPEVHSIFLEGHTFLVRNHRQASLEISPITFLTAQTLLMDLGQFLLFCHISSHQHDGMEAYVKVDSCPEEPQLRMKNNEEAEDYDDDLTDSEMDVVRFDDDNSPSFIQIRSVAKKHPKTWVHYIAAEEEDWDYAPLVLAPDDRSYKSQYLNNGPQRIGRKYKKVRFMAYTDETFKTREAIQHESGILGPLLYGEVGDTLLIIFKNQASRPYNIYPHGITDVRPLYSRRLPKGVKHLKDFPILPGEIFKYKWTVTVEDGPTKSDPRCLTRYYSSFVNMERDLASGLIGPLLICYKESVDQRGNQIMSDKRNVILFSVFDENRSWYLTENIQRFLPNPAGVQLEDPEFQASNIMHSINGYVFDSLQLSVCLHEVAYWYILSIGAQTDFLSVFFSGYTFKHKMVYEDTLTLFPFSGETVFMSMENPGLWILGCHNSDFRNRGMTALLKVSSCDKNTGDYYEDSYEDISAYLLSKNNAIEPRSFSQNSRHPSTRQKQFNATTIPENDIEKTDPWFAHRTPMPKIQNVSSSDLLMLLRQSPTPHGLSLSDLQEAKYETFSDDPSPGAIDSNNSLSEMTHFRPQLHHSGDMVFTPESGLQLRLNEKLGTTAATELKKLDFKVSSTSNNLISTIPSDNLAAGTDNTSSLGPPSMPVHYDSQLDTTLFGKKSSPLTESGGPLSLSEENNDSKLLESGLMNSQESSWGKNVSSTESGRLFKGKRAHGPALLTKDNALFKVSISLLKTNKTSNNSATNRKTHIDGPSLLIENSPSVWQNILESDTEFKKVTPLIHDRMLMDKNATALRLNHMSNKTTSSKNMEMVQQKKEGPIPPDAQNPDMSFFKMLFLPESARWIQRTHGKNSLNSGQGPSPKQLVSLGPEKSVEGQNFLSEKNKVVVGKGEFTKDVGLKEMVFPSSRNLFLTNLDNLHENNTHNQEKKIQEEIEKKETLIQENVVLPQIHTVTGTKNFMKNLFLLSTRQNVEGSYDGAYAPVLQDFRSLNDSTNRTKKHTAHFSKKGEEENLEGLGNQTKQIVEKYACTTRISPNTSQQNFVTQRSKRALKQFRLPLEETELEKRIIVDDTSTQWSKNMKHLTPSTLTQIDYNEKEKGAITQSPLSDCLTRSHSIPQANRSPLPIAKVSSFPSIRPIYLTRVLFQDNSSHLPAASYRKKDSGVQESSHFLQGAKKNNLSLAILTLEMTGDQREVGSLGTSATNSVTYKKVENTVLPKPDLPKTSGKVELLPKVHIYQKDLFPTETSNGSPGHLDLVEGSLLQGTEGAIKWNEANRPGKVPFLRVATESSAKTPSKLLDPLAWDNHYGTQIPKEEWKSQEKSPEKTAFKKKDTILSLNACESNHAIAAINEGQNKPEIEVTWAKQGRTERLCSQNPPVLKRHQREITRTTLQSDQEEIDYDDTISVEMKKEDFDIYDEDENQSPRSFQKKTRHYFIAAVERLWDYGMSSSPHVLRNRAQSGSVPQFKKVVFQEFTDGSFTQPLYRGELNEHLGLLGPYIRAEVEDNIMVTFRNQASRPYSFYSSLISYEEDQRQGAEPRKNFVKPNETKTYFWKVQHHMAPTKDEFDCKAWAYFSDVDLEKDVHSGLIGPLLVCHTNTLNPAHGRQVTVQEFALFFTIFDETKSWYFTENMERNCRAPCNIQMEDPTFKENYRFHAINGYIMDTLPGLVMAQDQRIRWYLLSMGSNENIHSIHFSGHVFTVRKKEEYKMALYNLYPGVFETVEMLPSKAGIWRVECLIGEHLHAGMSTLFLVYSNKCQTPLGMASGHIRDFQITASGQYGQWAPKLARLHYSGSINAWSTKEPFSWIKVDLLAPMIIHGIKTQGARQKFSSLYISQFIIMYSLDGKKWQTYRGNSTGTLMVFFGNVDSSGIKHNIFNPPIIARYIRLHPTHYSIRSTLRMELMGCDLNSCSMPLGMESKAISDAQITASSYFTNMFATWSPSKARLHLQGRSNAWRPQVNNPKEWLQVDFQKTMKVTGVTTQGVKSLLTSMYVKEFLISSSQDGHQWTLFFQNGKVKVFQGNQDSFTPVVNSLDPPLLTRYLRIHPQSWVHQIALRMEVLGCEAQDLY
factor V, sequence (P12259 29-2224): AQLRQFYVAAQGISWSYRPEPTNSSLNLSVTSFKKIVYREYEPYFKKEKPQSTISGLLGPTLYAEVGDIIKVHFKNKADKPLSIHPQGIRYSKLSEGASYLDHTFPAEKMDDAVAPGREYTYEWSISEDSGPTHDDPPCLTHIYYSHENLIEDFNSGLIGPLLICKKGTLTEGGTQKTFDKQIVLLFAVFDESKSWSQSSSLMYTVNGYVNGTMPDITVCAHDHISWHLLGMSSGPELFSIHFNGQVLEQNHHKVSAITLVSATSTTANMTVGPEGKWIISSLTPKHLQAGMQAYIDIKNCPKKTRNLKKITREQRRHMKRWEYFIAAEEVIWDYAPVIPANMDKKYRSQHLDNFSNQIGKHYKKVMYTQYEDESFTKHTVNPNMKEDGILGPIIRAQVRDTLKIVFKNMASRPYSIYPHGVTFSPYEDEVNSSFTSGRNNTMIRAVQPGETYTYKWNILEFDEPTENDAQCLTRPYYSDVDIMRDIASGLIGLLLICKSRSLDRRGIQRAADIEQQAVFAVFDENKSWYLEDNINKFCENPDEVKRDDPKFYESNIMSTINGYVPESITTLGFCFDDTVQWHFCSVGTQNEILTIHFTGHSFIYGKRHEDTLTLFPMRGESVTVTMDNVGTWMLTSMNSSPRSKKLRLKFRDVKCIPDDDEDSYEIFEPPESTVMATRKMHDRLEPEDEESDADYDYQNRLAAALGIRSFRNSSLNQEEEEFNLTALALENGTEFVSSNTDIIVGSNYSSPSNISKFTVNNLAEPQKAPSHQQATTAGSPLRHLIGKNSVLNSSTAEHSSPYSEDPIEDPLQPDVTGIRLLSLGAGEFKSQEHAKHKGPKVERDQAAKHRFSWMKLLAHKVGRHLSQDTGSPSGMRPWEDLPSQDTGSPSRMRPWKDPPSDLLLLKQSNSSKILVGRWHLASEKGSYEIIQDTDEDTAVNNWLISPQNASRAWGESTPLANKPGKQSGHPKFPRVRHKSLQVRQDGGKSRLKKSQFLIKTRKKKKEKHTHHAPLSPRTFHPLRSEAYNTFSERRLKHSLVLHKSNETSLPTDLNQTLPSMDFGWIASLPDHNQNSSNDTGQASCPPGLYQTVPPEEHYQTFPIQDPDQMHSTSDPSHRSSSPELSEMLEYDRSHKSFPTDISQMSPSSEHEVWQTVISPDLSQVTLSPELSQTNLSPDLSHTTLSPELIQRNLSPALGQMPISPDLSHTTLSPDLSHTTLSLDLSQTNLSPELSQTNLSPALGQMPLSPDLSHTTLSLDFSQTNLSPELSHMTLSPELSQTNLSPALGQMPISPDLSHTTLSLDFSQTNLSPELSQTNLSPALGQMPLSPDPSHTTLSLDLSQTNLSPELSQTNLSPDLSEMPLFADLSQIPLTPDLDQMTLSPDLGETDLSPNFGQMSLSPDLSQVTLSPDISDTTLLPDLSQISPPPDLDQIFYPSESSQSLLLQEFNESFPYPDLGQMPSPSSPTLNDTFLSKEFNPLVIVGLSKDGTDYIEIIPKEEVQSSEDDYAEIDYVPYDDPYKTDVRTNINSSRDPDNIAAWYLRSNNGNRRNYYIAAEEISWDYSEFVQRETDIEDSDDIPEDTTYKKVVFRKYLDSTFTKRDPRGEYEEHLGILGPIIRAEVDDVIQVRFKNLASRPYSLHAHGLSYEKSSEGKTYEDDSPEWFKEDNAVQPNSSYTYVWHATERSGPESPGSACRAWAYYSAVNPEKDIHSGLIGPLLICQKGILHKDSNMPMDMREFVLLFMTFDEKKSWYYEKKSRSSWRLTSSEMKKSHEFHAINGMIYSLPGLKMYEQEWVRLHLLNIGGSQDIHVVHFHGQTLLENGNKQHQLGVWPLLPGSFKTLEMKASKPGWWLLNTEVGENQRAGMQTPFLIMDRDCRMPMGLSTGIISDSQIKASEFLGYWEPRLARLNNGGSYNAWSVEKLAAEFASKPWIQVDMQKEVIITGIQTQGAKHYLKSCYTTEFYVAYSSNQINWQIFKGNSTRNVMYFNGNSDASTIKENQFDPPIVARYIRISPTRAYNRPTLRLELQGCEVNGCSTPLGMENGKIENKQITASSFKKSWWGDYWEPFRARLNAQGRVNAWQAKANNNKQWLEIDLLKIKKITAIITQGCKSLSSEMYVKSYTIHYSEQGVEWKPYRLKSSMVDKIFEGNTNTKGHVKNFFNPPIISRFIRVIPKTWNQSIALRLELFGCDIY

Substance	binding affinity towards factor V or factor VIII (factor V or factor VIII)	binding to factor V (factor V)	binding to factor VIII (factor VIII)	also measured
FVHPNYSKSTTDNDIALLH [iv)]	weaker	–	–	–
LEGYDLRRWEKWE	–	binds equally strong	binds equally strong	–
TGWGYHSSREKEA [v)]	weaker	–	–	–
bio-X-QQQLITIKQISEASRKSLSRD ({Biotin-code X}-QQQLITIKQISEASRKSLSRD) [Peptide 2, biotin-labelled peptide; bio = biotin, X = linker GSGSGSG]	–	–	–	IgG bound (IgG; 10 mg peptide-modified latex, 400 μl of 0.22 mg/ml IgG, 1 h room temperature): 55 µg; IgG Elution (IgG; 400 μl 25 mM acetate buffer pH 3.0, 1 h room temperature): 52 µg; Recovery [IgG] (IgG; eluted relative to bound IgG): 95%

Further lines, with some results ahead:

binding affinity towards factor V or factor VIII (factor V or factor VIII)	binding to factor V (factor V)	binding to factor VIII (factor VIII)	Substance	also measured
–	not significantly bind	–	GDSGGPMVASFHG	selectivity for factor VIII (factor VIII; versus factor V): high selectivity
–	–	not significantly binding	HNYGVYTKVSRYL	–
